Assay results taken from PubChem BioAssay AID2060512 (Molecular Pharmacology Branch, DTP, NCI, 2025).

Tested on: 186277-243-T-J2-PDC complex spheroid viability
Assay: Anticancer human tumor 186277-243-T-J2-PDC patient-derived colon adenocarcinoma cell line growth inhibition [GQUAD]
Settings: for IC50: curve of first compound; for viability, T/C: stronger effect = lower value
In short: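 Viability of tumor cells grown as complex spheroids with endothelial and stromal cells, exposed to drug combinations. Top concentration at or near clinical Cmax (else 10 microM), diluted in half-log increments.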

[1] = second compound 0.0316 µM, first compound 0.0316 µM
[2] = second compound 0.0316 µM, first compound 0.1 µM
[3] = second compound 0.0316 µM, first compound 0.316 µM
[4] = second compound 0.0316 µM, first compound 1 µM
[5] = second compound 0.0316 µM, first compound 3.16 µM
[6] = second compound 0.0316 µM, first compound 10 µM
[7] = second compound 0.1 µM, first compound 0.0316 µM
[8] = second compound 0.1 µM, first compound 0.1 µM
[9] = second compound 0.1 µM, first compound 0.316 µM
[10] = second compound 0.1 µM, first compound 1 µM
[11] = second compound 0.1 µM, first compound 3.16 µM
[12] = second compound 0.1 µM, first compound 10 µM
[13] = second compound 0.316 µM, first compound 0.0316 µM
[14] = second compound 0.316 µM, first compound 0.1 µM
[15] = second compound 0.316 µM, first compound 0.316 µM
[16] = second compound 0.316 µM, first compound 1 µM
[17] = second compound 0.316 µM, first compound 3.16 µM
[18] = second compound 0.316 µM, first compound 10 µM
[19] = second compound 1 µM, first compound 0.0316 µM
[20] = second compound 1 µM, first compound 0.1 µM
[21] = second compound 1 µM, first compound 0.316 µM
[22] = second compound 1 µM, first compound 1 µM
[23] = second compound 1 µM, first compound 3.16 µM
[24] = second compound 1 µM, first compound 10 µM
[25] = second compound 3.16 µM, first compound 0.0316 µM
[26] = second compound 3.16 µM, first compound 0.1 µM
[27] = second compound 3.16 µM, first compound 0.316 µM
[28] = second compound 3.16 µM, first compound 1 µM
[29] = second compound 3.16 µM, first compound 3.16 µM
[30] = second compound 3.16 µM, first compound 10 µM
[31] = second compound 10 µM, first compound 0.0316 µM
[32] = second compound 10 µM, first compound 0.1 µM
[33] = second compound 10 µM, first compound 0.316 µM
[34] = second compound 10 µM, first compound 1 µM
[35] = second compound 10 µM, first compound 3.16 µM
[36] = second compound 10 µM, first compound 10 µM
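For viability, T/C in this document: 100% = DMSO vehicle control viability.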

`O=c1[nH]cc(F)c(=O)[nH]1` + Cc1cnc(CNC(=O)c2c(=O)c3ccc(N4CCCN(C)CC4)nc3n3c2sc2ccccc23)cn1 was tested, and the IC50 (second compound 0.0316 µM) was greater than 10 µM, the IC50 (second compound 0.1 µM) was greater than 10 µM and the IC50 (second compound 0.316 µM) was greater than 10 µM. For the same compound, the IC50 (second compound 1 µM) was less than 0.0316 µM, the IC50 (second compound 3.16 µM) was less than 0.0316 µM and the IC50 (second compound 10 µM) was less than 0.0316 µM. The viability, T/C [1] was 106%, the viability, T/C [2] was 110% and the viability, T/C [3] was 109%. The viability, T/C [4] was 98.5%, the viability, T/C [5] was 82.9% and the viability, T/C [6] was 57%. For the same compound, the viability, T/C [7] was 86.4%, the viability, T/C [8] was 93.7% and the viability, T/C [9] was 99.9%. The viability, T/C [10] was 79%, the viability, T/C [11] was 93.3% and the viability, T/C [12] was 66.3%. It also gave a viability, T/C [13] of 76.8%, a viability, T/C [14] of 73.3% and a viability, T/C [15] of 84.7%. It also gave a viability, T/C [16] of 57.7%, a viability, T/C [17] of 75.1% and a viability, T/C [18] of 55.1%. The viability, T/C [19] was 47.9%, the viability, T/C [20] was 56.3% and the viability, T/C [21] was 50.7%. For the same compound, the viability, T/C [22] was 56.6%, the viability, T/C [23] was 64.3% and the viability, T/C [24] was 56.3%. For the same compound, the viability, T/C [25] was 49.4%, the viability, T/C [26] was 44.8% and the viability, T/C [27] was 51.5%. It also gave a viability, T/C [28] of 50.7%, a viability, T/C [29] of 61.7% and a viability, T/C [30] of 43.7%. For the same compound, the viability, T/C [31] was 40.5%, the viability, T/C [32] was 41.7% and the viability, T/C [33] was 39.2%. For the same compound, the viability, T/C [34] was 53.3%, the viability, T/C [35] was 48.7% and the viability, T/C [36] was 45.9%.
`C#Cc1c(F)ccc2cc(O)cc(-c3ncc4c(N5CC6CCC(C5)N6)nc(OCC56CCCN5CC(F)C6)nc4c3F)c12` (stereo unspecified) + CN(C)c1ccc(Nc2c3ccc(NC(=O)CCN4CCCC4)cc3nc3cc(NC(=O)CCN4CCCC4)ccc23)cc1 showed an IC50 (second compound 0.0316 µM) of 0.0899 µM, an IC50 (second compound 0.1 µM) of 0.0836 µM and an IC50 (second compound 0.316 µM) of 0.0997 µM. It also gave an IC50 (second compound 1 µM) of 0.0842 µM, an IC50 (second compound 3.16 µM) of 0.135 µM and an IC50 (second compound 10 µM) of 0.077 µM. The viability, T/C [1] was 82%, the viability, T/C [2] was 47.4% and the viability, T/C [3] was 21.6%. For the same compound, the viability, T/C [4] was 16.9%, the viability, T/C [5] was 6.89% and the viability, T/C [6] was 7.82%. The viability, T/C [7] was 74.2%, the viability, T/C [8] was 45.7% and the viability, T/C [9] was 18.7%. The viability, T/C [10] was 11.1%, the viability, T/C [11] was 6.45% and the viability, T/C [12] was 7.02%. It also gave a viability, T/C [13] of 77%, a viability, T/C [14] of 50.4% and a viability, T/C [15] of 19.8%. The viability, T/C [16] was 14.4%, the viability, T/C [17] was 8.31% and the viability, T/C [18] was 7.51%. The viability, T/C [19] was 74.6%, the viability, T/C [20] was 46.6% and the viability, T/C [21] was 21.3%. It also gave a viability, T/C [22] of 16.1%, a viability, T/C [23] of 14.3% and a viability, T/C [24] of 6.27%. It also gave a viability, T/C [25] of 73.9%, a viability, T/C [26] of 59.6% and a viability, T/C [27] of 22.9%. For the same compound, the viability, T/C [28] was 8.92%, the viability, T/C [29] was 8.54% and the viability, T/C [30] was 5.1%. The viability, T/C [31] was 74.3%, the viability, T/C [32] was 42.1% and the viability, T/C [33] was 24.2%. It also gave a viability, T/C [34] of 12.5%, a viability, T/C [35] of 6.96% and a viability, T/C [36] of 1.49%.
With `O=C(NO)c1cnc(N2CCN(S(=O)(=O)c3ccc4ccccc4c3)CC2)nc1` + CN(C)c1ccc(Nc2c3ccc(NC(=O)CCN4CCCC4)cc3nc3cc(NC(=O)CCN4CCCC4)ccc23)cc1 the IC50 (second compound 0.0316 µM) was 0.171 µM, the IC50 (second compound 0.1 µM) was 0.176 µM and the IC50 (second compound 0.316 µM) was 0.182 µM. For the same compound, the IC50 (second compound 1 µM) was 0.176 µM, the IC50 (second compound 3.16 µM) was 0.183 µM and the IC50 (second compound 10 µM) was 0.183 µM. The viability, T/C [1] was 103%, the viability, T/C [2] was 87% and the viability, T/C [3] was 7.72%. The viability, T/C [4] was 0.27%, the viability, T/C [5] was 0.26% and the viability, T/C [6] was 0.18%. The viability, T/C [7] was 90.1%, the viability, T/C [8] was 91.3% and the viability, T/C [9] was 7.71%. It also gave a viability, T/C [10] of 0.23%, a viability, T/C [11] of 0.14% and a viability, T/C [12] of 0.15%. For the same compound, the viability, T/C [13] was 105%, the viability, T/C [14] was 94.8% and the viability, T/C [15] was 8.34%. The viability, T/C [16] was 0.23%, the viability, T/C [17] was 0.12% and the viability, T/C [18] was 0.13%. For the same compound, the viability, T/C [19] was 92.1%, the viability, T/C [20] was 90.8% and the viability, T/C [21] was 7.85%. The viability, T/C [22] was 0.24%, the viability, T/C [23] was 0.13% and the viability, T/C [24] was 0.13%. For the same compound, the viability, T/C [25] was 104%, the viability, T/C [26] was 94.2% and the viability, T/C [27] was 9.96%. For the same compound, the viability, T/C [28] was 0.26%, the viability, T/C [29] was 0.16% and the viability, T/C [30] was 0.15%. The viability, T/C [31] was 92.5%, the viability, T/C [32] was 101% and the viability, T/C [33] was 7.98%. The viability, T/C [34] was 0.3%, the viability, T/C [35] was 0.21% and the viability, T/C [36] was 0.19%.
